Data as given in patent publication US20050107289A1, “Anti-microbial peptides and compositions” (priority 2001, published 2005).
≈ marks a conversion by molar mass, not a printed value. Structures can show the parent of a compound that is named as a salt. Where two headings read alike, the source gives them in different places. Non-standard residues stand in square brackets, D forms with d. Residues, ends and D or L forms follow the SMILES beside them.

How the values were obtained:
[1] = Human; cited from earlier work
[2] = system: S. aureus (MRSA) ATCC 33591; type: cell-based, Staphylococcus aureus; details: for MRSA (in vitro activity): Table 9
How it was run: (§1)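 MICs come from NCCLS-style (M7-A4) dilution testing, mostly microdilution, with an inoculum near 2.5×10^5 cfu/ml from 4000-fold-diluted overnight cultures. Peptide series were 2-fold steps spanning roughly 400–2 μg/ml, prepared in 9% aqueous sucrose with 5% DMSO.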

murine red blood cells = assay: Red blood cell hemolysis; type: cell-based, mouse; parameters: RBC Hemolysis (HD50): unit not given here
How it was run: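 Hemolysis read as A560 of supernatant, scaled between saline (0%) and 1% Triton X-100 (100%) controls; peptides were serially diluted onto 5% murine red cells in saline plus 10% FBS and incubated 30 min at 37° C.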

[3] = system: vancomycin-resistant Enterococus faecalis (VRE)(ATCC 51575); type: cell-based, Enterococcus faecalis; parameters: key to VRE (in vitro activity): peptide concentration in μg/ml (broth dilution assay); details: for VRE (in vitro activity): Table 9
How it was run: as §1

[4] = system: E. coli (EL744) K12 (tolC::kan); assay: microbe, parasite or virus in culture; type: cell-based, Escherichia coli; details: for MIC: Escherichia coli, read-out: E. coli (EL744) K12 (tolC::kan) MIC; for E. coli (EL744) K12 (tolC::kan) MIC: MHII broth
Method: (§2) The antimicrobial activity of the peptides was determined using a broth dilution assay essentially as descried in the guidelines of the National Committee for […] (NCCLS) [National Committee for Clinical Laboratory Standards. Methods for dilution antimicrobial susceptibility tests for bacteria that grow aerobically. Fourth edition. Approved Standard (1997). Document M7-A4. […] The microdilution method has the advantages of requiring less amount of peptide for each assay and the possibility of multiple simultaneous inoculations and was used in most studies. Several of the strains of bacteria tested are further described in Table 3.
(§3) Preparation of peptide solutions. Stock peptide solutions were prepared in 5% DMSO in aq. sucrose (9%). Determination of peptide concentrations was done by quantitative HPLC analysis using known concentrations of internal standards and/or by measuring UV absorption of tryptophane-containing peptide solutions in H2O (λ=280 εTrp: 5690). Serial 2-fold dilutions were made in the above DMSO/aq. sucrose (9%) mixture with concentrations ranging approximately 400-2 μg/ml and aliquots were dispensed in test tubes (100 μl) for the macrodilution test or in microtiter plates (20 μl) for the microdilution assays.
(§4) Inoculum preparation. Overnight cultures of different microorganisms grown in suitable media were diluted 4000 times to an approximate inoculum size of 2.5×10^5 cfu/ml.
(§5) Macrodilution method. Macrodilution methods were performed using procedures similar to those described in the National Committee for Clinical Laboratory Standards. Methods for dilution antimicrobial susceptibility tests for bacteria that grow aerobically. Fourth edition. Approved Standard (1997). Document M7-A4. (NCCLS,Villanova, Pa., 1997). Two ml aliquots of the above inoculum were dispensed to test tubes containing different peptide solutions.
(§6) Microdilution method. Microdilution methods were performed using procedures similar to those described in the National Committee for Clinical Laboratory Standards. Methods for dilution antimicrobial susceptibility tests for bacteria that grow aerobically. Fourth edition. Approved Standard (1997). Document M7-A4.

E. coli (K12) = assay: microbe, parasite or virus in culture; type: cell-based, Escherichia coli; details: for MIC: Escherichia coli, read-out: E. coli (K12) MIC
Method: as §2, §3, §4, §5, §6

H. influenzae ATCC 49247 = assay: microbe, parasite or virus in culture; type: cell-based, Hemophilus influenzae; details: for MIC: Haemophilus influenzae
Method: as §2, §3, §4, §5, §6

E. faecalis ATCC 51299 = assay: microbe, parasite or virus in culture; type: cell-based, Enterococcus faecalis; details: for MIC: Enterococcus faecalis
Method: as §2, §3, §4, §5, §6

E. faecium SP180 = assay: microbe, parasite or virus in culture; type: cell-based, Enterococcus faecium; details: for MIC: Enterococcus faecium
Method: as §2, §3, §4, §5, §6

S. aureus ATCC 33592 = assay: microbe, parasite or virus in culture; type: cell-based, Staphylococcus aureus; details: for MIC: Staphylococcus aureus
Method: as §2, §3, §4, §5, §6

[5] = system: S. aureus (MRSA) (ATCC No. 33592); assay: Time-killing curve, S. aureus MRSA ATCC 33592; type: cell-based, Staphylococcus aureus
Method: The speed at which several of the cyclic peptides of the invention kill E. coli JM 109 (DE3), Enterococcus faecium SP 180 and S. aureus (MRSA) (ATCC No. 33591 and 33592) was further tested at room temperature and/or at 37° C. A lower temperature tends to enrich the bacterial cultures for mature bacteria because the bacteria are not growing quickly. […] The presence or absence of immature bacteria in the culture may influence the rate at which the bacteria are killed, because immature bacteria tend to be more susceptible to many forms of antibiotics.
FIGS. 9 and 10 illustrate the time course for killing S. aureus (MRSA) (ATCC No. 33592) with varying concentrations of cyclo[KSKWLWLW] cyclic peptide (SEQ ID NO:12) at room temperature and at 37° C. […] This may be due to growth of a few survivors after the residual cyclic peptide within the culture has been exhausted because the amount of peptide employed in that assay was below the MIC value.

E. coli JM109(DE3) = type: cell-based, Escherichia coli
How it was run: as §1

[6] = system: Bacillus cereus ATCC 11778; type: cell-based; details: Table 10
How it was run: as §1

[7] = trypsin, α-chymotrypsin, subtilisin, blood plasma; RP-HPLC over 24 h
Method: Cyclic peptides having SEQ ID NO:13, 18, 26, and 29 were assayed for proteolytic susceptibility.

[8] = media b: cation adjusted Meuller Hinton broth (MHBII)
[9] = media c: Brain Heart Infusion (BHI)
[10] = ATCC49247, HTM, read-out: H. influenzae ATCC 49247 MIC
[11] = ATCC51299, read-out: E. faecalis ATCC 51299 MIC
[12] = SP180, read-out: E. faecium SP180 MIC
[13] = ATCC33592, read-out: S. aureus ATCC 33592 MIC

## CC[C@H]1OC(=O)[C@H](C)[C@@H](O[C@H]2C[C@@](C)(OC)[C@@H](O)[C@H](C)O2)[C@H](C)[C@@H](O[C@@H]2O[C@H](C)C[C@H](N(C)C)[C@H]2O)[C@](C)(O)C[C@@H](C)C(=O)[C@H](C)[C@@H](O)[C@]1(C)O [Erythromycin]
[1]
  Kel elimination rate constant: 0.58 h⁻¹
  T1/2 half life time: 1.2 h

## NC[C@H]1O[C@H](O[C@H]2[C@H](O)[C@@H](O[C@H]3O[C@H](CO)[C@@H](O)[C@H](N)[C@H]3O)[C@H](N)C[C@@H]2N)[C@H](O)[C@@H](O)[C@@H]1O [Kanamycin, reference compound]
[2]; [8]
  MRSA (in vitro activity): 150
Murine red blood cells; mouse, 30 min
  RBC Hemolysis (HD50): >600
[3]; [9]
  VRE (in vitro activity): >600
[4]
  MIC: > 128 µg/mL
E. coli (K12); MHII broth
  MIC: 4 µg/mL (≈ 8.26 µM)
H. influenzae ATCC 49247; [10]
  MIC: 4 µg/mL (≈ 8.26 µM)
E. faecalis ATCC 51299; [11]
  MIC: > 128 µg/mL
E. faecium SP180; [12]
  MIC: > 128 µg/mL
S. aureus ATCC 33592; [13]
  MIC: > 128 µg/mL

## CCn1cc(C(=O)O)c(=O)c2cc(F)c(N3CCNCC3)cc21 [Norfloxacin, reference compound]
[2]; [8]
  MRSA (in vitro activity): <2.8
Murine red blood cells; mouse, 30 min
  RBC Hemolysis (HD50): >360
[3]; [9]
  VRE (in vitro activity): <2.8
[4]
  MIC: 0.016 µg/mL (≈ 0.0501 µM)
E. coli (K12); MHII broth
  MIC: 0.06 µg/mL (≈ 0.188 µM)
H. influenzae ATCC 49247; [10]
  MIC: 0.06 µg/mL (≈ 0.188 µM)
E. faecalis ATCC 51299; ATCC51299, BHI broth, read-out: E. faecalis ATCC 51299 MIC
  MIC: 2 µg/mL (≈ 6.26 µM)
E. faecium SP180; SP180, BHI broth, read-out: E. faecium SP180 MIC
  MIC: 32 µg/mL (≈ 100 µM)
S. aureus ATCC 33592; ATCC33592, MHII broth, read-out: S. aureus ATCC 33592 MIC
  MIC: 0.5 µg/mL (≈ 1.57 µM)

## CC1(C)S[C@@H]2[C@H](NC(=O)Cc3ccccc3)C(=O)N2[C@H]1C(=O)O [Penicillin G, reference compound]
[4]
  E. coli (EL744) K12 (tolC::kan) MIC: 16 µg/mL
E. coli (K12); MHII broth
  E. coli (K12) MIC: 32 µg/mL
H. influenzae ATCC 49247; HTM
  H. influenzae ATCC 49247 MIC: 4 µg/mL
E. faecalis ATCC 51299; BHI broth
  E. faecalis ATCC 51299 MIC: 0.5 µg/mL
E. faecium SP180; BHI broth
  E. faecium SP180 MIC: 128 µg/mL
S. aureus ATCC 33592; MHII broth
  S. aureus ATCC 33592 MIC: 64 µg/mL
[5]; 512 μg/ml, 37° C.
  reduction of cfu: effective in reducing the number of cfu within four hours
[5]; room temperature, 0-8 hours, up to 512 μg/ml
  killing or reducing S. aureus (MRSA) population: no concentration of penicillin G assayed up to 512 μg/ml was effective

## CC(C)C[C@H]1NC(=O)[C@H](Cc2c[nH]c3ccccc23)NC(=O)[C@@H](CCCCN)NC(=O)[C@H](Cc2c[nH]cn2)NC(=O)[C@@H](CO)NC(=O)[C@H](Cc2c[nH]c3ccccc23)NC(=O)[C@@H](CC(C)C)NC(=O)[C@H](Cc2c[nH]c3ccccc23)NC1=O [SEQ ID NO:13] (cyclo([dS]H[dK]W[dL]W[dL]W))
[2]; Table 6, ATCC 33591
  S. aureus (MRSA) MIC: 10 µg/mL
[2]; media a: anti-microbial media-3 (AM-3)
  MRSA (in vitro activity): 10
[2]; Table 10, ATCC 33591
  MRSA MIC: 10 µg/mL
E. coli JM109(DE3); Table 6, JM109(DE3)
  E. coli MIC: 100 µg/mL
Murine red blood cells; Table 9
  RBC Hemolysis (HD50): 35
[3]; media a: AM-3
  VRE (in vitro activity): 40
[3]; Table 10, ATCC 51575
  VRE MIC: 40 µg/mL
[6]
  B. cerius MIC: 12 µg/mL
[7]
  proteolytic stability: stable

## CC(C)C[C@H]1NC(=O)[C@H](CCCNC(=N)N)NC(=O)[C@@H](CCCNC(=N)N)NC(=O)[C@H](Cc2c[nH]c3ccccc23)NC(=O)[C@@H](CC(C)C)NC(=O)[C@H](Cc2c[nH]c3ccccc23)NC1=O [SEQ ID NO:29, cyclo-(D-Arg-Arg-D-Leu-Trp-D-Leu-Trp)] (cyclo(R[dL]W[dL]W[dR]))
[2]; ATCC 33591
  S. aureus (MRSA) MIC: 35 µg/mL
E. coli JM109(DE3); JM109
  E. coli MIC: 5 µg/mL
Murine red blood cells; red cells of murine
  Hemolysis HD50: 90 µg/mL
[7]
  proteolytic stability: stable

## CN[C@H](CC(C)C)C(=O)N[C@H]1C(=O)N[C@@H](CC(N)=O)C(=O)N[C@H]2C(=O)N[C@H]3C(=O)N[C@H](C(=O)N[C@H](C(=O)O)c4cc(O)cc(O)c4-c4cc3ccc4O)[C@H](O)c3ccc(c(Cl)c3)Oc3cc2cc(c3O[C@@H]2O[C@H](CO)[C@@H](O)[C@H](O)[C@H]2O[C@H]2C[C@](C)(N)[C@H](O)[C@H](C)O2)Oc2ccc(cc2Cl)[C@H]1O [Vancomycin, reference compound]
[2]; [8]
  MRSA (in vitro activity): VANCOMYCIN <1.8
Murine red blood cells; Table 9
  RBC Hemolysis (HD50): >240
[3]; [9]
  VRE (in vitro activity): >240
[4]
  MIC: 128 µg/mL (≈ 88.3 µM)
E. coli (K12)
  MIC: 128 µg/mL (≈ 88.3 µM)
H. influenzae ATCC 49247; ATCC49247, read-out: H. influenzae ATCC 49247 MIC
  MIC: 128 µg/mL (≈ 88.3 µM)
E. faecalis ATCC 51299; [11]
  MIC: 32 µg/mL (≈ 22.1 µM)
E. faecium SP180; [12]
  MIC: > 128 µg/mL
S. aureus ATCC 33592; [13]
  MIC: 0.5 µg/mL (≈ 0.345 µM)
[1]
  CL total clearance: 66 mL/min
  Kel elimination rate constant: 0.12 h⁻¹
  T1/2 half life time: 6 h
  VD volume of distribution: 0.47 L/kg

## CC(C)C[C@H]1NC(=O)[C@H](CCCNC(=N)N)NC(=O)[C@@H](CCCNC(=N)N)NC(=O)[C@H](Cc2c[nH]c3ccccc23)NC(=O)[C@@H](CC(C)C)NC(=O)[C@H](Cc2c[nH]c3ccccc23)NC1=O [[RRLWLW]-HCl, cyclo-(D-Arg-Arg-D-Leu-Trp-D-Leu-Trp)] (cyclo(R[dL]W[dL]W[dR]))
[4]
  E. coli (EL744) K12 (tolC::kan) MIC: 8 µg/mL
E. coli (K12); K12
  E. coli (K12) MIC: 16 µg/mL
H. influenzae ATCC 49247; ATCC 49247
  H. influenzae ATCC 49247 MIC: 8 to 16 µg/mL
E. faecalis ATCC 51299; ATCC 51299
  E. faecalis ATCC 51299 MIC: 32 to 64 µg/mL
E. faecium SP180; SP180
  E. faecium SP180 MIC: 8 to 16 µg/mL
S. aureus ATCC 33592; ATCC 33592
  S. aureus ATCC 33592 MIC: 32 µg/mL
